Key:
Wistar rats = assay: Higher-tier studies taken together (OECD TG 408, 414, 421/422, 443): NOAEL
Protocol: All in vivo studies were conducted as oral gavage studies, selecting the oral route as most appropriate route of administration to reflect the worst-case exposure scenario. […] The OECD TG 443 included mating of first generation (F1) offspring to produce a second generation (F2), and the DIT and DNT cohorts.

bacteria = settings: cited from earlier work
in vivo = settings: female, Wistar, rat, serum; for concentration at 1 h: oral
Procedure, shortened: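 Test item given by oral gavage at 500 and 1000 mg/kg bw to 10 males and 10 females per dose group, following OECD TG 417. Serum parent parabens and the metabolite p-hydroxybenzoic acid were measured by […] (LOQ 10 ng/mL parabens, 130 ng/mL p-hydroxybenzoic acid). Faeces and urine were not analysed.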

With CCCOC(=O)c1ccc(O)cc1 [Propyl paraben, Propyl 4-hydroxybenzoate] the “NOAEL, repeated-dose toxicity and DART, all higher-tier studies” value (Wistar rats; limit dose, oral gavage) was 1000 mg/kg bw/day, the “NOAEL: Accessory sex organs HP” value (Wistar rats; over all higher-tier studies) was 1000 / 1000 mg/kg bw/day and the “NOAEL: Adrenals HP” value (Wistar rats; over all higher-tier studies) was 1000 / 1000 mg/kg bw/day. The “NOAEL: Adrenals weight” value (Wistar rats; over all higher-tier studies) was 1000 / 1000 mg/kg bw/day, the “NOAEL: Age at balano-preputial separation” value (Wistar rats; over all higher-tier studies) was 1000 / 1000 mg/kg bw/day and the “NOAEL: Age at vaginal opening” value (Wistar rats; over all higher-tier studies) was 1000 / 1000 mg/kg bw/day. For the same molecule, the “NOAEL: Anogenital distance” value (Wistar rats; over all higher-tier studies) was 1000 / 1000 mg/kg bw/day, the “NOAEL: Auditory startle” value (Wistar rats; over all higher-tier studies) was 1000 / 1000 mg/kg bw/day and the “NOAEL: Brain HP” value (Wistar rats; over all higher-tier studies) was 1000 / 1000 mg/kg bw/day. For the same molecule, the “NOAEL: Brain morphometric evaluation” value (Wistar rats; over all higher-tier studies) was 1000 / 1000 mg/kg bw/day, the “NOAEL: Brain weight” value (Wistar rats; over all higher-tier studies) was 1000 / 1000 mg/kg bw/day and the “NOAEL: Cervix HP” value (Wistar rats; over all higher-tier studies) was 1000 / 1000 mg/kg bw/day. The “NOAEL: Coagulating gland HP” value (Wistar rats; over all higher-tier studies) was 1000 / 1000 mg/kg bw/day, the “NOAEL: Coagulating gland weight” value (Wistar rats; over all higher-tier studies) was 1000 / 1000 mg/kg bw/day and the “NOAEL: Colloid area (thyroid HP)” value (Wistar rats; over all higher-tier studies) was 1000 / 1000 mg/kg bw/day. The “NOAEL: Dystocia” value (Wistar rats; over all higher-tier studies) was 1000 / 1000 mg/kg bw/day, the “NOAEL: Epididymis HP” value (Wistar rats; over all higher-tier studies) was 1000 / 1000 mg/kg bw/day and the “NOAEL: Epididymis weight” value (Wistar rats; over all higher-tier studies) was 1000 / 1000 mg/kg bw/day. The “NOAEL: Fertility” value (Wistar rats; over all higher-tier studies) was 1000 / 1000 mg/kg bw/day, the “NOAEL: Foetal development” value (Wistar rats; over all higher-tier studies) was 1000 / 1000 mg/kg bw/day and the “NOAEL: Functional observation battery” value (Wistar rats; over all higher-tier studies) was 1000 / 1000 mg/kg bw/day. The “NOAEL: Genital abnormalities” value (Wistar rats; over all higher-tier studies) was 1000 / 1000 mg/kg bw/day, the “NOAEL: Gestation length” value (Wistar rats; over all higher-tier studies) was 1000 / 1000 mg/kg bw/day and the “NOAEL: Litter / pup weight” value (Wistar rats; over all higher-tier studies) was 1000 / 1000 mg/kg bw/day. For the same molecule, the “NOAEL: Litter size” value (Wistar rats; over all higher-tier studies) was 1000 / 1000 mg/kg bw/day, the “NOAEL: Litter viability” value (Wistar rats; over all higher-tier studies) was 1000 / 1000 mg/kg bw/day and the “NOAEL: Liver weight” value (Wistar rats; over all higher-tier studies) was 1000 / 1000 mg/kg bw/day. For the same molecule, the “NOAEL: Mammary gland HP; females” value (Wistar rats; over all higher-tier studies) was 1000 / 1000 mg/kg bw/day, the “NOAEL: Mammary gland HP; males” value (Wistar rats; over all higher-tier studies) was 1000 / 1000 mg/kg bw/day and the “NOAEL: Motor activity” value (Wistar rats; over all higher-tier studies) was 1000 / 1000 mg/kg bw/day. The “NOAEL: Nipple development” value (Wistar rats; over all higher-tier studies) was 1000 / 1000 mg/kg bw/day, the “NOAEL: No. of implantations, corpora lutea” value (Wistar rats; over all higher-tier studies) was 1000 / 1000 mg/kg bw/day and the “NOAEL: No. of live births” value (Wistar rats; over all higher-tier studies) was 1000 / 1000 mg/kg bw/day. The “NOAEL: No. of ovarian follicles” value (Wistar rats; over all higher-tier studies) was 1000 / 1000 mg/kg bw/day, the “NOAEL: Oestrus cyclicity” value (Wistar rats; over all higher-tier studies) was 1000 / 1000 mg/kg bw/day and the “NOAEL: Offspring: learning & memory” value (Wistar rats; over all higher-tier studies) was 1000 / 1000 mg/kg bw/day. For the same molecule, the “NOAEL: Ovary HP” value (Wistar rats; over all higher-tier studies) was 1000 / 1000 mg/kg bw/day, the “NOAEL: Ovary weight” value (Wistar rats; over all higher-tier studies) was 1000 / 1000 mg/kg bw/day and the “NOAEL: Oviduct HP” value (Wistar rats; over all higher-tier studies) was 1000 / 1000 mg/kg bw/day. For the same molecule, the “NOAEL: Pituitary HP” value (Wistar rats; over all higher-tier studies) was 1000 / 1000 mg/kg bw/day, the “NOAEL: Pituitary weight” value (Wistar rats; over all higher-tier studies) was 1000 / 1000 mg/kg bw/day and the “NOAEL: Postimplantation loss” value (Wistar rats; over all higher-tier studies) was 1000 / 1000 mg/kg bw/day. For the same molecule, the “NOAEL: Pre-implantation loss” value (Wistar rats; over all higher-tier studies) was 1000 / 1000 mg/kg bw/day, the “NOAEL: Presence of anomalies” value (Wistar rats; over all higher-tier studies) was 1000 / 1000 mg/kg bw/day and the “NOAEL: Prostate HP” value (Wistar rats; over all higher-tier studies) was 1000 / 1000 mg/kg bw/day. The “NOAEL: Prostate weight” value (Wistar rats; over all higher-tier studies) was 1000 / 1000 mg/kg bw/day, the “NOAEL: Pup development” value (Wistar rats; over all higher-tier studies) was 1000 / 1000 mg/kg bw/day and the “NOAEL: Reproduction” value (Wistar rats; over all higher-tier studies) was 1000 / 1000 mg/kg bw/day. For the same molecule, the “NOAEL: Seminal vesicles HP” value (Wistar rats; over all higher-tier studies) was 1000 / 1000 mg/kg bw/day, the “NOAEL: Seminal vesicles weight” value (Wistar rats; over all higher-tier studies) was 1000 / 1000 mg/kg bw/day and the “NOAEL: Sperm morphology” value (Wistar rats; over all higher-tier studies) was 1000 / 1000 mg/kg bw/day. The “NOAEL: Sperm motility” value (Wistar rats; over all higher-tier studies) was 1000 / 1000 mg/kg bw/day, the “NOAEL: Sperm numbers” value (Wistar rats; over all higher-tier studies) was 1000 / 1000 mg/kg bw/day and the “NOAEL: Testis HP” value (Wistar rats; over all higher-tier studies) was 1000 / 1000 mg/kg bw/day. The “NOAEL: Testis weight” value (Wistar rats; over all higher-tier studies) was 1000 / 1000 mg/kg bw/day, the “NOAEL: Thyroid HP” value (Wistar rats; over all higher-tier studies) was 1000 / 1000 mg/kg bw/day and the “NOAEL: Thyroid stimulating hormone level” value (Wistar rats; over all higher-tier studies) was 1000 / 1000 mg/kg bw/day. For the same molecule, the “NOAEL: Thyroid weight” value (Wistar rats; over all higher-tier studies) was 1000 / 1000 mg/kg bw/day, the “NOAEL: Time to mating” value (Wistar rats; over all higher-tier studies) was 1000 / 1000 mg/kg bw/day and the “NOAEL: Triiodothyronine / thyroxine level” value (Wistar rats; over all higher-tier studies) was 1000 / 1000 mg/kg bw/day. For the same molecule, the “NOAEL: Uterus HP (with cervix)” value (Wistar rats; over all higher-tier studies) was 1000 / 1000 mg/kg bw/day, the “NOAEL: Uterus weight (with cervix)” value (Wistar rats; over all higher-tier studies) was 1000 / 1000 mg/kg bw/day and the “NOAEL: Vagina HP” value (Wistar rats; over all higher-tier studies) was 1000 / 1000 mg/kg bw/day. For the same molecule, the “NOAEL: Vaginal smears” value (Wistar rats; over all higher-tier studies) was 1000 / 1000 mg/kg bw/day, the “Mutagenicity in bacteria classification” value (bacteria) was “Not mutagenic [c] (OECD 471; 2018)” and the concentration at 1 h (in vivo; 500 mg/kg) was 68 ng/mL. The concentration at 1 h (in vivo; 1000 mg/kg) was 20.2 ng/mL and the Tmax (in vivo; po, 500 mg/kg) was 15 min.

Source: publication PMC7904550, “Application of grouping and read-across for the evaluation of parabens of different chain lengths with a particular focus on endocrine properties” (Archives of Toxicology, 2021)
